Measurements published in patent US10562898B2, “Substituted benzenesulfonamides as inhibitors of alpha-4 beta-7 integrin activity” (EA PHARMA CO., LTD., priority 2016, dated 2020).

The compounds below were run against T1, T cell α4β7 integrin (Homo sapiens, UniProt P13612+P26010) (assay: Mouse MAdCAM-1/α4β7 integrin binding inhibitory activity evaluation test in whole human blood). Settings: recombinant mouse MAdCAM-1/Fc, CD4 positive cells, flow cytometry.
T1 construct: Blood samples were obtained from healthy volunteers' blood donation; endogenous in cells; host or cells: CD4-positive T cells in whole blood of healthy human volunteers
T1 sequence (P13612 34-1032): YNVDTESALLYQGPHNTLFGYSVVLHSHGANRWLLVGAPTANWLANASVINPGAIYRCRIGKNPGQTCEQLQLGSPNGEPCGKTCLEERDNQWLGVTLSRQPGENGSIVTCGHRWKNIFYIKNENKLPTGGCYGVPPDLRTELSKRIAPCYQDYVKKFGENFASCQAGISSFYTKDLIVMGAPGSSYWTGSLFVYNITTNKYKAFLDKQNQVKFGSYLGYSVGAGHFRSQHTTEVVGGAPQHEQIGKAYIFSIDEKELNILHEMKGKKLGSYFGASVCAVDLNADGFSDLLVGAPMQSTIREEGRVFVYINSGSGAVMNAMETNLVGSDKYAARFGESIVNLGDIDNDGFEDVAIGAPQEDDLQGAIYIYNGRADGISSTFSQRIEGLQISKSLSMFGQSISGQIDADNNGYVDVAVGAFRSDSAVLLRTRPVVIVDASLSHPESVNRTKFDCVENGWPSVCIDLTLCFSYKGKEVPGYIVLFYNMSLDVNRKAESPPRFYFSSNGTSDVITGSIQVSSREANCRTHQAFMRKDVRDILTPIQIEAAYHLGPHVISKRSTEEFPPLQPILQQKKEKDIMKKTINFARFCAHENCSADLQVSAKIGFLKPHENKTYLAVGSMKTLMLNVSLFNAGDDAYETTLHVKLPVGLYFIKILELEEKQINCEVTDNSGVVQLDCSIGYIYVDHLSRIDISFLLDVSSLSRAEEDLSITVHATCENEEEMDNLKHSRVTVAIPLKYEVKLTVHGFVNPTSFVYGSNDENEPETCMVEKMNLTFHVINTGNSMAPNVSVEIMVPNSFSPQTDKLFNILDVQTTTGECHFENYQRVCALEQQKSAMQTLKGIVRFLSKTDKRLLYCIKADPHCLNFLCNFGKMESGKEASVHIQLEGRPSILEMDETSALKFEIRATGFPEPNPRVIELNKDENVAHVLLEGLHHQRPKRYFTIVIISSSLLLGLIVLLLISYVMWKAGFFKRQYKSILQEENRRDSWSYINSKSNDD
T1 sequence (P26010 20-798): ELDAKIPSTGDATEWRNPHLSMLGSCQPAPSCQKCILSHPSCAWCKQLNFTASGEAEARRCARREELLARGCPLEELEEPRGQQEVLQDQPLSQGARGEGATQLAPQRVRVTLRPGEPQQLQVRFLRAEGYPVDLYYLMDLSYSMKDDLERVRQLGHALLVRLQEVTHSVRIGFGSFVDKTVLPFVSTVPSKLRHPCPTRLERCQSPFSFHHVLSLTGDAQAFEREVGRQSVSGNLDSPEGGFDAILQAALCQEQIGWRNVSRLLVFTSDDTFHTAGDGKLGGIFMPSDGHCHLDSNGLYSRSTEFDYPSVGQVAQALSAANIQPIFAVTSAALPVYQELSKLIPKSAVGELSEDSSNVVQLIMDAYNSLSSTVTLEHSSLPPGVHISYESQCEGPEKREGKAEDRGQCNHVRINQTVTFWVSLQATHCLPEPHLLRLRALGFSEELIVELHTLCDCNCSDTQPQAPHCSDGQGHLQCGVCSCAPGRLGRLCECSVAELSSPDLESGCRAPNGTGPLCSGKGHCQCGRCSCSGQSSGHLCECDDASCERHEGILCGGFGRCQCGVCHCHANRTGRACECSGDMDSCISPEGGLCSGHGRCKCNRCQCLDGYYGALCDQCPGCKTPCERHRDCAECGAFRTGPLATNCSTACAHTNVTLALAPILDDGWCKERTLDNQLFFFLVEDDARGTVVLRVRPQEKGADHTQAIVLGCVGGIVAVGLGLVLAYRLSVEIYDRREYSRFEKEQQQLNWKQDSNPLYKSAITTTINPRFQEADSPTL
Format: cell-based
Procedure: (4) Mouse MAdCAM-1/α4β7 Integrin Binding Inhibitory Activity Evaluation Test in Whole Human Blood
Each test substance was measured in terms of the binding inhibitory activity of T cell α4β7 integrin and MAdCAM-1 in human whole blood. Blood samples were obtained from healthy volunteers' blood donation.
A 4 mM MnCl2 solution and each of dilutions of various test substances were added to human whole blood, followed by incubation for 10 minutes. Recombinant mouse MAdCAM-1/Fc (R&D Systems, Inc.) at 10 μg/mL was added to the resultant, and each test sample taken in a total amount of 50 μL was incubated for 30 minutes. Then, 950 μL of Lyse/Fix (BD Biosciences) was added to allow hemolysis and fixation to proceed at 37° C. for 10 minutes. After centrifugation for 5 minutes, the supernatant was removed and 600 μL of a RPMI-1640 medium supplemented with 10% inactivated fetal bovine serum (hereinafter referred to as the medium) was added, followed by centrifugation for 5 minutes, removal of the supernatant, and then washing. After the test sample was washed again with the medium, Rat Anti-Mouse MAdCAM-1 antibody (Southern Biotech) at 0.625 μg/mL was added, followed by incubation for 30 minutes or more. After the test sample was washed with the medium, 50 μg/mL Goat Anti-Rat IgG (H+L) Antibody, FITC (Life Technologies) was added, followed by incubation for 30 minutes or more. After the test sample was washed with the medium, 10 μg/mL PE Rat Anti-Mouse CD4 (BD Pharmigen) was added, followed by incubation for 30 minutes or more. After the test sample was washed with the medium, a ratio of MAdCAM-1 positive cells to CD4 positive cells was measured by using flow cytometry.
From independent test results using different blood samples of two to three persons, a MAdCAM-1 binding inhibiting rate of each test substance at each of various concentrations was obtained under the setting in which, among wells containing no test substances, a well containing no ligand was scored at 100% inhibition and a well containing ligand was scored at 0% inhibition, and then a concentration IC50 which brought about 50% binding inhibition was calculated.
`Cn1c(=O)n(-c2ccc(C[C@H](NC(=O)c3cc(F)c(NS(=O)(=O)c4ccc(NC(=O)C(C)(C)C)cc4)cc3F)C(=O)O)cc2)c(=O)c2ccncc21` [Compound A1, (2S)-2-[[4-[[4-(2,2-dimethylpropanoylamino)phenyl]sulfonylamino]-2,5-difluoro-benzoyl]amino]-3-[4-(1-methyl-2,4-dioxo-pyrido[3,4-d]pyrimidin-3-yl)phenyl]propanoic acid] showed an IC50 of 3.9 nM.
`Cc1c(C)n(C)c(=O)n(-c2ccc(C[C@H](NC(=O)c3cc(F)c(NS(=O)(=O)c4ccc(NC(=O)C(C)(C)C)cc4)cc3F)C(=O)O)cc2)c1=O` [Compound A8] was tested, and the IC50 was 1.3 nM.
With `Cn1c(=O)n(-c2ccc(C[C@H](NC(=O)c3cc(F)c(NS(=O)(=O)c4ccc(NC(=O)C(C)(C)C)cc4)cc3F)C(=O)O)cn2)c(=O)c2ccncc21` [Compound A26] the IC50 was 2.4 nM.
Compound `Cc1c(C)n(C)c(=O)n(-c2ccc(C[C@H](NC(=O)c3cc(F)c(NS(=O)(=O)c4ccc(NC(=O)C(C)(C)C)cc4)cc3F)C(=O)O)cn2)c1=O` [Compound A28] has an IC50 of 1.2 nM.
`Cc1c(C)n(C)c(=O)n(-c2ccc(C[C@H](NC(=O)c3cc(F)c(NS(=O)(=O)c4ccc(NC(=O)C(C)(C)C)cn4)cc3F)C(=O)O)cn2)c1=O` [Compound A32] gave an IC50 of 1.9 nM.
With `Cc1cn(C)c(=O)n(-c2ccc(C[C@H](NC(=O)c3cc(F)c(NS(=O)(=O)c4ccc(NC(=O)C(C)(C)C)cc4)cc3F)C(=O)O)cc2)c1=O` [Compound A37] the IC50 was 3.3 nM.
`Cn1c2c(c(=O)n(-c3ccc(C[C@H](NC(=O)c4cc(F)c(NS(=O)(=O)c5ccc(NC(=O)C(C)(C)C)cc5)cc4F)C(=O)O)cn3)c1=O)CCOC2` [Compound A40] gave an IC50 of 2.3 nM.
`Cn1ccc(=O)n(-c2ccc(C[C@H](NC(=O)c3cc(F)c(NS(=O)(=O)c4ccc(NC(=O)C(C)(C)C)cc4)cc3F)C(=O)O)cc2)c1=O` [Compound A42] gave an IC50 of 2.2 nM.
Work on `Cn1c2c(c(=O)n(-c3ccc(C[C@H](NC(=O)c4cc(F)c(NS(=O)(=O)c5ccc(NC(=O)C(C)(C)C)cc5)cc4F)C(=O)O)cn3)c1=O)COCC2` [Compound A44] yielded an IC50 of 1 nM.
With `Cc1cc(=O)n(-c2ccc(C[C@H](NC(=O)c3cc(F)c(NS(=O)(=O)c4ccc(NC(=O)C(C)(C)C)cc4)cc3F)C(=O)O)cn2)c(=O)n1C` [Compound A45] the IC50 was 1.3 nM.
`Cc1cc(=O)n(-c2ccc(C[C@H](NC(=O)c3cc(F)c(NS(=O)(=O)c4ccc(NC(=O)C(C)(C)C)cc4)cc3F)C(=O)O)cc2)c(=O)n1C` [Compound A46] gave an IC50 of 1.6 nM.
In the case of `Cn1ccc(=O)n(-c2ccc(C[C@H](NC(=O)c3cc(F)c(NS(=O)(=O)c4ccc(NC(=O)C(C)(C)C)cc4)cc3F)C(=O)O)cn2)c1=O` [Compound A53], the IC50 is reported as 1.8 nM.
In the case of `Cc1cn(C)c(=O)n(-c2ccc(C[C@H](NC(=O)c3cc(F)c(NS(=O)(=O)c4ccc(NC(=O)C(C)(C)C)cc4)cc3F)C(=O)O)cn2)c1=O` [Compound A54], the IC50 is reported as 1.3 nM.
